Laboratory results from patent publication US12304890B2, “R-type pyridyloxycarboxylic acid, salt and ester derivative thereof, and preparation method therefor, and herbicidal composition and application thereof” (Qingdao Kingagroot Chemical Compound Co., Ltd., priority 2018, dated 2025).

Assays:
Format in all cases: in vivo
Echinochloa crusgalli = assay: Post-emergence test experiment, Echinochloa crusgalli; settings: 1000 g a.i./ha, 3 weeks in greenhouse, fresh weight inhibition
In short: (§1)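 Read-out is fresh weight inhibition rate, taken 3 weeks after spraying. Treatment was applied to plants at the 2-3 leaf stage, grown from seed under 0.5-2 cm soil in greenhouse pots. Spray solution contained acetone, tween-80 and methyl oleate emulsible concentrate at 1.5 liters per hectare.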

[1] = system: Monocotyledonous and dicotyledonous weed seeds and main crop seeds; assay: Post-emergence test experiment, other weeds and crops (Table 4, 1000 g a.i./ha); settings: 3 weeks in greenhouse, fresh weight inhibition
In short: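 Weed and crop seeds (wheat, corn, rice, soybean, cotton, oilseed, millet, sorghum) sown in soil pots in a greenhouse and sprayed at 2-3 leaf stage, 2 weeks after sowing. Compound in acetone/tween-80 with methyl oleate concentrate (1.5 L/ha) as synergist. Effect recorded as fresh-weight growth inhibition rate.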

Digitaria sanguinalis = assay: Post-emergence test experiment, Digitaria sanguinalis; settings: 1000 g a.i./ha, 3 weeks in greenhouse, fresh weight inhibition
In short: as §1

Structure (SMILES)	Activity level (growth inhibition rate), Echinochloa crusgalli (Echinochloa crusgalli)	Activity level (growth inhibition rate), Abutilon theophrasti Medic. [1]	Activity level (growth inhibition rate), Galium aparine [1]	Activity level (growth inhibition rate), Monochoria Vaginalis [1]	Activity level (growth inhibition rate), Digitaria sanguinalis (Digitaria sanguinalis)
Cc1ccc(CSC(=O)C(C)Oc2nc(F)c(Cl)c(N)c2Cl)cc1 (centres unmarked) [Compound 2-307]	5 (Level 5: the growth inhibition rate is greater than 85%)	5 (Level 5: the growth inhibition rate is greater than 85%)	5 (Level 5: the growth inhibition rate is greater than 85%)	5 (Level 5: the growth inhibition rate is greater than 85%)	5 (Level 5: the growth inhibition rate is greater than 85%)
CC(Oc1nc(F)c(Cl)c(N)c1Cl)C(=O)OCc1ccccc1F (centres unmarked) [Compound 2-308]	5 (Level 5: the growth inhibition rate is greater than 85%)	5 (Level 5: the growth inhibition rate is greater than 85%)	5 (Level 5: the growth inhibition rate is greater than 85%)	5 (Level 5: the growth inhibition rate is greater than 85%)	5 (Level 5: the growth inhibition rate is greater than 85%)
CC(Oc1nc(F)c(Cl)c(N)c1Cl)C(=O)SCc1ccccc1F (centres unmarked) [Compound 2-309]	5 (Level 5: the growth inhibition rate is greater than 85%)	5 (Level 5: the growth inhibition rate is greater than 85%)	5 (Level 5: the growth inhibition rate is greater than 85%)	5 (Level 5: the growth inhibition rate is greater than 85%)	5 (Level 5: the growth inhibition rate is greater than 85%)
CC(Oc1nc(F)c(Cl)c(N)c1Cl)C(=O)OCc1cccc(F)c1 (centres unmarked) [Compound 2-310]	5 (Level 5: the growth inhibition rate is greater than 85%)	5 (Level 5: the growth inhibition rate is greater than 85%)	5 (Level 5: the growth inhibition rate is greater than 85%)	5 (Level 5: the growth inhibition rate is greater than 85%)	5 (Level 5: the growth inhibition rate is greater than 85%)
CC(Oc1nc(F)c(Cl)c(N)c1Cl)C(=O)SCc1cccc(F)c1 (centres unmarked) [Compound 2-311]	5 (Level 5: the growth inhibition rate is greater than 85%)	5 (Level 5: the growth inhibition rate is greater than 85%)	5 (Level 5: the growth inhibition rate is greater than 85%)	5 (Level 5: the growth inhibition rate is greater than 85%)	5 (Level 5: the growth inhibition rate is greater than 85%)
CC(Oc1nc(F)c(Cl)c(N)c1Cl)C(=O)OCc1ccc(F)cc1 (centres unmarked) [Compound 2-312]	5 (Level 5: the growth inhibition rate is greater than 85%)	5 (Level 5: the growth inhibition rate is greater than 85%)	5 (Level 5: the growth inhibition rate is greater than 85%)	5 (Level 5: the growth inhibition rate is greater than 85%)	5 (Level 5: the growth inhibition rate is greater than 85%)
CC(Oc1nc(F)c(Cl)c(N)c1Cl)C(=O)SCc1ccc(F)cc1 (centres unmarked) [Compound 2-313]	5 (Level 5: the growth inhibition rate is greater than 85%)	5 (Level 5: the growth inhibition rate is greater than 85%)	5 (Level 5: the growth inhibition rate is greater than 85%)	5 (Level 5: the growth inhibition rate is greater than 85%)	5 (Level 5: the growth inhibition rate is greater than 85%)
CC(Oc1nc(F)c(Cl)c(N)c1Cl)C(=O)OCc1ccccc1Cl (centres unmarked) [Compound 2-314]	5 (Level 5: the growth inhibition rate is greater than 85%)	5 (Level 5: the growth inhibition rate is greater than 85%)	5 (Level 5: the growth inhibition rate is greater than 85%)	5 (Level 5: the growth inhibition rate is greater than 85%)	5 (Level 5: the growth inhibition rate is greater than 85%)
CC(Oc1nc(F)c(Cl)c(N)c1Cl)C(=O)SCc1ccccc1Cl (centres unmarked) [Compound 2-315]	5 (Level 5: the growth inhibition rate is greater than 85%)	5 (Level 5: the growth inhibition rate is greater than 85%)	5 (Level 5: the growth inhibition rate is greater than 85%)	5 (Level 5: the growth inhibition rate is greater than 85%)	5 (Level 5: the growth inhibition rate is greater than 85%)
CC(Oc1nc(F)c(Cl)c(N)c1Cl)C(=O)OCc1cccc(Cl)c1 (centres unmarked) [Compound 2-316]	5 (Level 5: the growth inhibition rate is greater than 85%)	5 (Level 5: the growth inhibition rate is greater than 85%)	5 (Level 5: the growth inhibition rate is greater than 85%)	5 (Level 5: the growth inhibition rate is greater than 85%)	5 (Level 5: the growth inhibition rate is greater than 85%)
CC(Oc1nc(F)c(Cl)c(N)c1Cl)C(=O)SCc1cccc(Cl)c1 (centres unmarked) [Compound 2-317]	5 (Level 5: the growth inhibition rate is greater than 85%)	5 (Level 5: the growth inhibition rate is greater than 85%)	5 (Level 5: the growth inhibition rate is greater than 85%)	5 (Level 5: the growth inhibition rate is greater than 85%)	5 (Level 5: the growth inhibition rate is greater than 85%)
CC(Oc1nc(F)c(Cl)c(N)c1Cl)C(=O)OCc1ccc(Cl)cc1 (centres unmarked) [Compound 2-318]	5 (Level 5: the growth inhibition rate is greater than 85%)	5 (Level 5: the growth inhibition rate is greater than 85%)	5 (Level 5: the growth inhibition rate is greater than 85%)	5 (Level 5: the growth inhibition rate is greater than 85%)	5 (Level 5: the growth inhibition rate is greater than 85%)
CC(Oc1nc(F)c(Cl)c(N)c1Cl)C(=O)OCc1ccccc1Br (centres unmarked) [Compound 2-320]	5 (Level 5: the growth inhibition rate is greater than 85%)	5 (Level 5: the growth inhibition rate is greater than 85%)	5 (Level 5: the growth inhibition rate is greater than 85%)	5 (Level 5: the growth inhibition rate is greater than 85%)	5 (Level 5: the growth inhibition rate is greater than 85%)
CC(Oc1nc(F)c(Cl)c(N)c1Cl)C(=O)SCc1ccccc1Br (centres unmarked) [Compound 2-321]	5 (Level 5: the growth inhibition rate is greater than 85%)	5 (Level 5: the growth inhibition rate is greater than 85%)	5 (Level 5: the growth inhibition rate is greater than 85%)	5 (Level 5: the growth inhibition rate is greater than 85%)	5 (Level 5: the growth inhibition rate is greater than 85%)
CC(Oc1nc(F)c(Cl)c(N)c1Cl)C(=O)OCc1cccc(Br)c1 (centres unmarked) [Compound 2-322]	5 (Level 5: the growth inhibition rate is greater than 85%)	5 (Level 5: the growth inhibition rate is greater than 85%)	5 (Level 5: the growth inhibition rate is greater than 85%)	5 (Level 5: the growth inhibition rate is greater than 85%)	5 (Level 5: the growth inhibition rate is greater than 85%)
CC(Oc1nc(F)c(Cl)c(N)c1Cl)C(=O)SCc1cccc(Br)c1 (centres unmarked) [Compound 2-323]	5 (Level 5: the growth inhibition rate is greater than 85%)	5 (Level 5: the growth inhibition rate is greater than 85%)	5 (Level 5: the growth inhibition rate is greater than 85%)	5 (Level 5: the growth inhibition rate is greater than 85%)	5 (Level 5: the growth inhibition rate is greater than 85%)
